In article PMC5924804, “Various Bee Pheromones Binding Affinity, Exclusive Chemosensillar Localization, and Key Amino Acid Sites Reveal the Distinctive Characteristics of Odorant-Binding Protein 11 in the Eastern Honey Bee, Apis cerana” (Frontiers in Physiology, 2018):
Positions count from the first letter of the chain named. Where two headings read alike, the source gives them in different places.

Columns and labels:
[1] = target: T1, AcerOBP11m-Ile97 (Ile97Gly mutant) (Apis cerana, UniProt S5CRW7, I97G); assay: Fluorescence competitive binding assay with 1-NPN, mutant AcerOBP11m-Ile97
T1 sequence (S5CRW7 1-142 I97G): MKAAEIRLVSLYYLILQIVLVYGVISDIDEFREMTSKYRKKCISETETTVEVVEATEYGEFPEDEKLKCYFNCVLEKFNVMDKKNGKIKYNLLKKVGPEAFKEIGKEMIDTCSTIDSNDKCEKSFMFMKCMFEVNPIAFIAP
Experimental: (§1) Fluorescence experiments on AcerOBP11 with N-phenyl-1-naphthylamine (1-NPN) were carried out on a Shimadzu RF-5301 spectrofluorimeter using a quartz cuvette in a right-angle configuration. The interactions were monitored by recording 1-NPN fluorescence upon addition of 1-NPN aliquots with excitation wavelength of 337 nm, and emission wavelength of 350–450 nm, where the slit was 5 nm. Titrations were carried out at 25°C with 1 μmol/L recombinant protein in PBS buffer. The fluorescence intensities at the maximum of emission wavelength (400~410 nm) were recorded to calculate Scatchard plots. The dissociation constant of the protein/1-NPN complex (K1−NPN) was calculated from Scatchard plots and applied in the equation below to estimate ligand binding affinity. All 23 ligands (1 mM) used in competition experiments were dissolved in spectrally pure grade methanol. Three independent measurements were taken for binding data.
(§2) In order to verify whether the predicted interaction sites played a role in the binding of AcerOBP11 protein with ligands, site-directed mutagenesis of the corresponding amino acid was carried out. The mutant primers were designed by a partial overlap method before synthesis. The plasmids of pET-32a/AcerOBP11 wild-type were mutated by using fast mutagenesis system kit (Transgen, CN) and then transformed into BL21 (DE3) competent cells. The mutant plasmids of target sites were confirmed by sequencing, and then the mutant proteins were obtained by the induction and purification in the same method as AcerOBP11 wild-type above. The secondary structure of purified AcerOBP11 recombinant protein mutants was also analyzed using circular dichroism (CD) spectrometry (815 type, Jasco, JP). The mutant proteins were used for competitive fluorescence experiments with the six candidate ligands chosen from the previous section. The target amino acids and binding mode of AcerOBP11 binding with candidate ligands were acquired by comparing the dissociation constant KD between wild-type and mutant AcerOBP11. Statistical analysis data (mean ± SE) of KD values for the same mutated amino acid site were also used as one-way analysis of variance (ANOVA) followed by a mean LSD test.

[2] = target: T2, AcerOBP11m-Phe101 (Phe101Gly mutant) (Apis cerana, UniProt S5CRW7, F101G); assay: Fluorescence competitive binding assay with 1-NPN, mutant AcerOBP11m-Phe101; conditions: for change of KD compared with AcerOBP11-wt: AcerOBP11m-Phe101 vs wild-type
T2 sequence (S5CRW7 1-142 F101G): T1 sequence (S5CRW7 1-142 I97G) with G97I, F101G
Experimental: as §1, §2

[3] = target: T3, AcerOBP11m-Ile140 (Ile140Gly mutant) (Apis cerana, UniProt S5CRW7, I140G); assay: Fluorescence competitive binding assay with 1-NPN, mutant AcerOBP11m-Ile140
T3 sequence (S5CRW7 1-142 I140G): T1 sequence (S5CRW7 1-142 I97G) with G97I, I140G
Experimental: as §1, §2

[4] = target: recombinant AcerOBP11 (Apis cerana, UniProt S5CRW7); assay: biochemical; format: binding
Experimental: as §1, with “The” for “Fluorescence experiments on AcerOBP11 with N-phenyl-1-naphthylamine (1-NPN) were carried out on a Shimadzu RF-5301 spectrofluorimeter using a quartz cuvette in a right-angle configuration. The”

[5] = target: ASP1; set-up: method as in Weng et al., 2013; conditions: ref Weng et al., 2013; cited from earlier work
[6] = target: ASP2; set-up: method as in Li et al., 2013; conditions: ref Li et al., 2013; cited from earlier work
[7] = AcerOBP11m-Ile97, Table S4, mean ± SE, read-out: KD
[8] = AcerOBP11m-Ile97, Table S4, mean ± SE, read-out: [IC50]
[9] = AcerOBP11m-Phe101, Table S4, mean ± SE, read-out: KD
[10] = AcerOBP11m-Phe101, Table S4, mean ± SE, read-out: [IC50]
[11] = AcerOBP11m-Ile140, Table S4, mean ± SE, read-out: KD
[12] = AcerOBP11m-Ile140, Table S4, mean ± SE, read-out: [IC50]
[13] = KD, calculated from IC50, KD = [IC50]/(1+[1-NPN]/K1-NPN), Table 1
[14] = [IC50], AcerOBP11-wt, Table S4, mean ± SE
[15] = [IC50], displacement of 1-NPN, 1 μmol/L protein in PBS, 25°C, Table 1
[16] = calculated from IC50, KD = [IC50]/(1+[1-NPN]/K1-NPN), Table 1, read-out: KD
[17] = displacement of 1-NPN, 1 μmol/L protein in PBS, 25°C, Table 1, read-out: [IC50]
[18] = KD, AcerOBP11-wt, Table S4, mean ± SE

Chain of recombinant AcerOBP11 (S5CRW7 entry or part of it): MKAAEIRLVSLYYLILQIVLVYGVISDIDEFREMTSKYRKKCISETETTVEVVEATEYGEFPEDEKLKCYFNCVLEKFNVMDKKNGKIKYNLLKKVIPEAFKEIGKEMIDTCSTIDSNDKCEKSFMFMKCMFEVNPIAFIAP

With `CC(=O)OCCC(C)C` [Isoamyl acetate] the Kd [1, 7] was 4.544 ± 0.022 µM, the IC50 [1, 8] was 17.75 ± 0.144 µM and the “change of KD compared with AcerOBP11-wt” value ([1]; AcerOBP11m-Ile97 vs wild-type) was “significantly increased”. The Kd [2, 9] was 2.61 ± 0.063 µM, the IC50 [2, 10] was 10.7 ± 0.26 µM and the “change of KD compared with AcerOBP11-wt” value [2] was “did not observe significant increases”. For the same compound, the Kd [3, 11] was 3.99 ± 0.221 µM, the IC50 [3, 12] was 12.9 ± 0.697 µM and the “increase of KD compared with AcerOBP11-wt” value ([3]; AcerOBP11m-Ile140 vs wild-type, p < 0.01) was 1.8 fold. The Kd [4, 13] was 3.3 µM, the IC50 [4, 14] was 16.88 ± 0.144 µM and the IC50 [4, 15] was 24 µM.

With `COC(=O)c1ccccc1O` [Methyl salicylate] the IC50 [4] was 40 µM and the Kd [4] was 6.83 µM.

In the case of `CCCCCCCCCCCCCCCC(=O)OC` [Methyl palmitate], the Kd [4, 16] is reported as 4.38 µM and the IC50 [4, 17] is reported as 21 µM.

Work on `CC1CCC(C(C)C)C(O)C1` (racemic) [DL-Menthol] yielded an IC50 [4] of 26.2 µM and a Kd [4] of 4.34 µM.

With `CC(C)=CCC/C(C)=C/CC/C(C)=C/CO` [Farnesol] the Kd [1, 7] was 5.24 ± 0.069 µM, the IC50 [1, 8] was 21.3 ± 0.237 µM and the “change of KD compared with AcerOBP11-wt” value ([1]; AcerOBP11m-Ile97 vs wild-type) was “significantly increased”. For the same compound, the Kd [2, 9] was 3.14 ± 0.072 µM, the IC50 [2, 10] was 17.8 ± 0.411 µM and the Kd [3, 11] was 4.93 ± 0.133 µM. For the same compound, the IC50 [3, 12] was 19.9 ± 0.536 µM, the Kd [4, 13] was 4.71 µM and the IC50 [4, 14] was 20.6 ± 0.237 µM. For the same compound, the IC50 [4, 15] was 32.2 µM.

In the case of `COC(=O)c1ccc(O)cc1` [HOB, methyl p-hydroxybenzoate], the IC50 [1] is reported as 6.09 ± 0.156 µM, the Kd [1] is reported as 1.48 ± 0.045 µM and the IC50 [2] is reported as 6.257 ± 0.025 µM. The Kd [2] was 1.447 ± 0.006 µM, the “change of KD compared with AcerOBP11-wt” value [2] was “did not observe significant increases” and the IC50 [3] was 5.57 ± 0.114 µM. It also gave a Kd [3] of 1.91 ± 0.039 µM, a Kd ([4]; KD) of less than 10 µM and a Kd [4, 13] of 1.35 µM. The IC50 [4, 14] was 8.31 ± 0.156 µM and the IC50 [4, 15] was 8.33 µM.

In the case of `CC(=O)CCCCC/C=C/C(=O)O` [9-ODA, (E)-9-oxo-2-decanoic acid], the Kd [4, 16] is reported as 6.67 µM, the IC50 [4, 17] is reported as 36.9 µM and the Kd ([4]; read-out: KD) is reported as less than 10 µM.

`C=CC(=C)CCC=C(C)C` [Myrcene] gave a Kd [4, 16] of 10.7 µM and an IC50 [4, 17] of 45.7 µM.

Compound `Cc1ccc(C=O)cc1C` [3,4-Dimethylbenzaldehyde] has a Kd [4, 16] of 4.76 µM and an IC50 [4, 17] of 36.7 µM.

For `C=CCc1ccc(OC)c(OC)c1` [4-Allylveratrole], the Kd [1, 7] was 5.83 ± 0.06 µM, the IC50 [1, 8] was 25.823 ± 0.022 µM and the “change of KD compared with AcerOBP11-wt” value ([1]; AcerOBP11m-Ile97 vs wild-type) was “significantly increased”. The Kd [2, 9] was 4.84 ± 0.092 µM, the IC50 [2, 10] was 20.1 ± 0.381 µM and the “change of KD compared with AcerOBP11-wt” value [2] was “did not observe significant increases”. For the same compound, the Kd [3, 11] was 4.28 ± 0.279 µM, the IC50 [3, 12] was 22.5 ± 1.46 µM and the Kd [4, 13] was 2.67 µM. For the same compound, the IC50 [4, 14] was 21 ± 0.22 µM and the IC50 [4, 15] was 16.8 µM.

In the case of `CC12CCC(CC1)C(C)(C)O2` [1,8-Cineole], the IC50 [4] is reported as 21.1 µM and the Kd [4, 16] is reported as 4.3 µM.

`CC(C)=CCC/C(C)=C/CO` [Geraniol] showed a Kd [4, 13] of 8.58 µM and an IC50 [4, 15] of 39.9 µM.

In the case of `CC(=O)/C=C/C1=C(C)CCCC1(C)C` [β- Ionone], the Kd [5] is given as 14.7 µM, the Kd [6] is given as 5.14 µM and the Kd [4, 13] is given as 3.79 µM. It also gave an IC50 [4, 15] of 21.1 µM.

`CC1=CCC2C(C1)C2(C)C` (stereo not drawn) [3-Carene] gave a Kd [4, 16] of 9.79 µM.

Work on `CC(C)=CCC/C(C)=C\CO` [Nerol] yielded a Kd [4, 13] of 6.13 µM and an IC50 [4, 15] of 33.9 µM.

Work on `CCCCCC(C)=O` [2-Heptanone] yielded a Kd [4, 16] of 4.32 µM and an IC50 [4, 17] of 31.1 µM.

With `CCCCCCO` [n-hexanol] the Kd [1, 7] was 10.1 ± 0.456 µM, the IC50 [1, 8] was 33.4 ± 0.785 µM and the “change of KD compared with AcerOBP11-wt” value ([1]; AcerOBP11m-Ile97 vs wild-type) was “significantly increased”. The “increase of KD compared with AcerOBP11-wt” value ([1]; AcerOBP11m-Ile97 vs wild-type, p < 0.01) was 3.60 fold, the Kd [2, 9] was 2.321 ± 0.02 µM and the IC50 [2, 10] was 14.26 ± 0.124 µM. It also gave a Kd [3, 11] of 3.19 ± 0.076 µM, an IC50 [3, 12] of 11.8 ± 0.283 µM and a Kd [4, 18] of 2.79 ± 0.104 µM. For the same compound, the Kd [4, 13] was 2.79 µM and the IC50 [4, 14] was 21.1 ± 0.785 µM.

For `CCCCCCCC/C=C\CCCCCCCC(=O)OC` [Methyl oleate], the “relative fluorescence of 1-NPN” value ([4]; ligand 1-11 μmol/L) was no less than 50%.

For `CCCCCCCCCCCCCC(=O)O` [Myristic acid], the IC50 [4] was 45.2 µM and the Kd [4] was 7.71 µM.

`C=CC(C)(O)CCC=C(C)C` (stereo not drawn) [Linalool] gave an IC50 [4] of 55 µM and a Kd [4] of 9.53 µM.

With `CCCCCCCCCCCCCCCC(=O)OCC` [Ethyl palmitate] the Kd [1, 7] was 1.86 ± 0.022 µM, the IC50 [1, 8] was 6.61 ± 0.076 µM and the Kd [2, 9] was 3.89 ± 0.143 µM. The IC50 [2, 10] was 20.3 ± 0.747 µM, the “change of KD compared with AcerOBP11-wt” value [2] was “did not observe significant increases” and the Kd [3, 11] was 5.34 ± 0.167 µM. The IC50 [3, 12] was 16.6 ± 0.52 µM, the Kd [4, 18] was 3.788 ± 0.012 µM and the Kd [4, 13] was 3.82 µM. For the same compound, the IC50 [4, 14] was 24.39 ± 0.076 µM and the IC50 [4, 15] was 19.4 µM.

For `O=CCc1ccccc1` [Phenylacetaldehyde], the IC50 [4] was 21.6 µM and the Kd [4] was 3.75 µM.
